Measurements taken from ChEMBL document CHEMBL5338810, “Targeting Pancreatic Cancer with Novel Plumbagin Derivatives: Design, Synthesis, Molecular Mechanism, In Vitro and In Vivo Evaluation” (J Med Chem, 2023).
Calls of active or inactive are those of the source. The calls are words filed in the database; no cut-off is given here.

Tests used:
PANC-1 [1] = experiment: Preferential cytotoxic activity against human PANC-1 cells in nutrient-deprived medium assessed as reduction in cell viability incubated for 24 hrs by WST-8 cell counting analysis; format: functional
PANC-1 [2] = experiment: Cytotoxicity against human PANC-1 cells in Dulbecco's modified Eagle's medium assessed as reduction in cell viability incubated for 24 hrs by WST-8 cell counting analysis; format: functional, cell-based; conditions: PANC-1, 24 h
[3] = Selectivity ratio, ratio of IC50 for cytotoxicity against human PANC-1 cells in Dulbecco's modified Eagle's medium to PC50 for preferential cytotoxic activity against human PANC-1 cells in nutrient-deprived medium; format: functional
MIA PaCa-2 [4] = experiment: Antitumor activity against human MIA PaCa-2 cells xenografted in athymic BALB/c-nu mouse assessed as reduction in mean tumor volume at 50 ug, ip administered 5 times per week for 4 weeks and measured on day 32 (reference value: 1642 mm3); format: functional; conditions: dose 50 µg
[5] = Toxicity in athymic BALB/c-nu mouse xenografted with human MIA PaCa-2 cells assessed as changes in body weight at 50 to 250 ug, ip administered 5 times per week for 4 weeks and measured twice weekly; format: organism-based; conditions: in vivo, 672 h, dose 50-250 µg
MIA PaCa-2 [6] = experiment: Antitumor activity against human MIA PaCa-2 cells xenografted in athymic BALB/c-nu mouse assessed as reduction in mean tumor volume at 250 ug, ip administered 5 times per week for 4 weeks and measured on day 18 (reference value: 447 mm3); format: functional; conditions: dose 250 µg
PANC-1 [7] = experiment: Disruption of plasma membrane integrity in human PANC-1 cells in nutrient-deprived medium assessed as rupture of the cell membrane by measuring increase in red fluorescence at 1 uM incubated for 24 hrs by dual fluorescent staining based microscopic analysis; format: functional
MIA PaCa-2 [8] = experiment: Antitumor activity against human MIA PaCa-2 cells xenografted in athymic BALB/c-nu mouse assessed as reduction in average mean wet weight at 50 ug, ip administered 5 times per week for 4 weeks and measured on day 32 (reference value: 465.4 mg); format: functional; conditions: dose 50 µg
PANC-1 [9] = experiment: Disruption of plasma membrane integrity in human PANC-1 cells in nutrient-deprived medium assessed as rounded cell morphology by measuring increase in red fluorescence at 1 uM incubated for 24 hrs by dual fluorescent staining based microscopic analysis; format: functional
[10] = Inhibition of PI3K/Akt/mTOR signaling pathway in human PANC-1 cells in nutrient-deprived medium assessed as redution in Akt phosphorylation at 0.5 to 10 uM incubated for 3 hrs by Western blotting analysis; format: cell-based; conditions: dose 0.5-10 µM
[11] = Toxicity in athymic BALB/c-nu mouse xenografted with human MIA PaCa-2 cells assessed as survival at 50 to 250 ug, ip administered 5 times per week for 4 weeks; format: organism-based; conditions: in vivo, 672 h, dose 50-250 µg
[12] = Inhibition of PI3K/Akt/mTOR signaling pathway in human PANC-1 cells in nutrient-deprived medium at 0.5 to 10 uM by Western blotting analysis; format: cell-based; conditions: dose 0.5-10 µM, time 3-6 hrs, TDE = time-dependent effect
PANC-1 [13] = experiment: Disruption of plasma membrane integrity in human PANC-1 cells in nutrient-deprived medium assessed as membrane blebs by measuring increase in red fluorescence at 1 uM incubated for 24 hrs by dual fluorescent staining based microscopic analysis; format: functional, cell-based
PANC-1 [14] = experiment: Disruption of plasma membrane integrity in human PANC-1 cells in nutrient-deprived medium assessed as leakage of cellular contents by measuring increase in red fluorescence at 1 uM incubated for 24 hrs by dual fluorescent staining based microscopic analysis; format: functional, cell-based
MIA PaCa-2 [15] = experiment: Antitumor activity against human MIA PaCa-2 cells xenografted in athymic BALB/c-nu mouse assessed as reduction in mean tumor volume at 250 ug, ip administered 5 times per week for 4 weeks and measured on day 32 (reference value: 1642 mm3); format: functional; conditions: dose 250 µg
MIA PaCa-2 [16] = experiment: Antitumor activity against human MIA PaCa-2 cells xenografted in athymic BALB/c-nu mouse assessed as reduction in blood vessels at 50 to 250 ug, ip administered 5 times per week for 4 weeks; format: functional, organism-based; conditions: dose 50-250 µg
[17] = Toxicity in athymic BALB/c-nu mouse xenografted with human MIA PaCa-2 cells assessed as changes in abdominal organs at 50 to 250 ug, ip administered 5 times per week for 4 weeks; format: organism-based; conditions: in vivo, 672 h, dose 50-250 µg
[18] = Inhibition of PI3K/Akt/mTOR signaling pathway in human PANC-1 cells in nutrient-deprived medium incubated for 3 to 6 hrs by Western blotting analysis; format: cell-based; conditions: dose 0.5-10 µM, time 3-6 hrs
MIA PaCa-2 [19] = experiment: Antitumor activity against human MIA PaCa-2 cells xenografted in athymic BALB/c-nu mouse assessed as reduction in average mean wet weight at 250 ug, ip administered 5 times per week for 4 weeks and measured on day 32 (reference value: 465.4 mg); format: functional; conditions: dose 250 µg
MIA PaCa-2 [20] = experiment: Antitumor activity against human MIA PaCa-2 cells xenografted in athymic BALB/c-nu mouse assessed as reduction in mean tumor volume at 50 ug, ip administered 5 times per week for 4 weeks and measured on day 18 (reference value: 447 mm3); format: functional; conditions: dose 50 µg
MIA PaCa-2 [21] = experiment: Antitumor activity against human MIA PaCa-2 cells xenografted in athymic BALB/c-nu mouse assessed as changes in gross appearance of tumor at 50 to 250 ug, ip administered 5 times per week for 4 weeks; format: functional, organism-based; conditions: dose 50-250 µg

SMILES	PC50 (PANC-1 [1])	IC50 (PANC-1 [2])	Ratio [3]	also measured
O=C1C=C(CC2CCCCC2)C(=O)c2c(O)cccc21	0.74 µM	31.9 µM	42.9	
CC1=CC(=O)c2c(O)cccc2C1=O [PLUMBAGIN]	1.54 µM	23.7 µM	15.4	
CC(C)CC1=CC(=O)c2c(O)cccc2C1=O	0.39 µM	12.9 µM	33.1	
CCCC1=CC(=O)c2ccccc2C1=O	3.55 µM	39.1 µM	11	
O=C1C(CC2CCCC2)=CC(=O)c2c(O)cccc21	0.4 µM	8.4 µM	21	
O=C1C(CC2CCCCCC2)=CC(=O)c2c(O)cccc21	0.78 µM	4.22 µM	5.41	
O=C1C=C(CC2CCCCC2)C(=O)c2ccccc21	0.96 µM	66.9 µM	69.9	
O=C1C(CC2CCCCC2)=CC(=O)c2c(O)cccc21	0.11 µM	47.2 µM	429	Activity (MIA PaCa-2 [4]): 763 mm3; Activity [5]: Non-Toxic; Activity (MIA PaCa-2 [6]): 166 mm3; Activity (PANC-1 [7]): Active; Activity (MIA PaCa-2 [8]): 205.8 mg; Activity (PANC-1 [9]): Active; inhibition [10]: Active; Activity [11]: Non-Toxic; inhibition [12]: Tde; Activity (PANC-1 [13]): Active; Activity (PANC-1 [14]): Active; Activity (MIA PaCa-2 [15]): 446 mm3; Activity (MIA PaCa-2 [16]): Active; Activity [17]: Non-Toxic; inhibition [18]: Dose-Dependent Effect; Activity (MIA PaCa-2 [19]): 107.6 mg; Activity (MIA PaCa-2 [20]): 210 mm3; Activity (MIA PaCa-2 [21]): Active
O=C1C=C(Cc2cccc(Cl)c2)C(=O)c2ccccc21	2.84 µM	46.7 µM	16.4	
CCC1=CC(=O)c2c(OC)cccc2C1=O	21.2 µM	103 µM	4.86	
CCC1=CC(=O)c2cccc(O)c2C1=O	1.05 µM	8.56 µM	8.2	
CCC1=CC(=O)c2c(O)cccc2C1=O	1.46 µM	31.6 µM	21.6	
CCCC1=CC(=O)c2c(O)cccc2C1=O	0.45 µM	15.6 µM	34.7	
CCC1=CC(=O)c2ccccc2C1=O	1.2 µM	39.7 µM	33.1	
Cc1ccc(CC2=CC(=O)c3ccccc3C2=O)cc1	4.67 µM	76.2 µM	16.3	
